These are literature values, as cited in US7074832B2, “Compositions containing antimicrobials and urea for the treatment of dermatological disorders and methods for their use” (Bradley Pharmaceuticals, Inc., priority 2001, dated 2006).

≈ marks a conversion by molar mass, not a printed value.

Data set [1] has as its system cyclooxygenase. The note with it: qualitative statement in the description.

As to `Cc1ncc([N+](=O)[O-])n1CCO` [Metronidazole, 2-methyl-5-nitro-1H-imidazole-1-ethanol], the solubility in alcohol entry (alcohol) was “slightly soluble”. For the same compound, the solubility in water (water, 20° C.) is 10000 µg/mL (≈ 58.4 mM).
Take `Cc1c(C)c2c(c(C)c1O)CC[C@@](C)(CCC[C@H](C)CCC[C@H](C)CCCC(C)C)O2` [alpha tocopherol]: the cyclooxygenase activity inhibition entry in data set [1] is “not”.
As for `Cc1c(O)cc2c(c1C)OC(C)(CCC(=O)O)CC2` (stereo not drawn) [gamma-CEHC, 2,7,8-trimethyl-2-(beta-carboxyethyl)-6-hydroxychroman], in data set [1], the cyclooxygenase activity inhibition result is “inhibit cyclooxygenase activity”.
As to `Cc1c(O)cc2c(c1C)O[C@](C)(CCC[C@H](C)CCC[C@H](C)CCCC(C)C)CC2` [gamma tocopherol], the cyclooxygenase activity inhibition result in data set [1] is recorded as “inhibit cyclooxygenase activity”.
